Measured values taken from patent US11420935B2, “Bicyclic compounds” (Vivace Therapeutics, Inc., priority 2019, dated 2022).
Read-outs that look alike come from different tables or passages of the source.

Test system: 8×TBD luciferase reporter (YAP) in HEK293T cells
Assay: YAP Reporter Assay (8×TBD firefly luciferase reporter)
Assay type: cell-based
Conditions: Homo sapiens, HEK-293T
Procedure, shortened: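 Stably transfected HEK293T cells (8×TBD firefly luciferase plus TK-renilla) were dosed with 10-point 1:3 dilutions from 3 μM final, quadruplicates, for 24 h at 37 °C. Dual-Glo read firefly and renilla luminescence; IC50 and maximal inhibition reported separately for each.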

[1] = HEK293T cells stably transfected with 8×TBD luciferase reporter and pRLTK, 24-hr incubation, firefly luciferase activity, read-out: Firefly Luciferase IC50
[2] = 24 h, read-out: Firefly Luciferase IC50 (μM)

Compound | IC50 [1] [µM] | IC50 [2] [µM]
NS(=O)(=O)c1ccc2c(Oc3ccc(C(F)(F)F)cc3)cccc2c1 [Compound 117, 5-(4-(trifluoromethyl)phenoxy)naphthalene-2-sulfonamide] | < 0.1 | –
COc1cc(Oc2ccc(C(F)(F)F)cc2)c2ncc(C(=O)N[C@H](C)c3ccccn3)cc2c1 [Compound 42, (R)-6-methoxy-N-(1-(pyridin-2-yl)ethyl)-8-(4-(trifluoromethyl)phenoxy)quinoline-3-carboxamide] | 0.1 to 1 | –
C[C@H](NC(=O)c1ccc2c(Oc3ccc(C(F)(F)F)cc3)cccc2c1)c1c[nH]cn1 [Compound 49, (S)—N-(1-(1H-imidazol-4-yl)ethyl)-5-(4-(trifluoromethyl)phenoxy)-2-naphthamide] | < 0.1 | –
C[C@@H](NC(=O)c1ccc2c(Oc3ccc(C(F)(F)F)cc3)cccc2c1)C1(F)CNC1 [Compound 152, (R)-N-(1-(3-fluoroazetidin-3-yl)ethyl)-5-(4-(trifluoromethyl)phenoxy)-2-naphthamide] | 0.1 to 1 | –
C[C@@H](NC(=O)c1ccc2c(Oc3ccc(C(F)(F)F)cc3)cccc2c1)C1COC1 [Compound 40, (R)—N-(1-(oxetan-3-yl)ethyl)-5-(4-(trifluoromethyl)phenoxy)-2-naphthamide] | < 0.1 | –
C[C@@H](NC(=O)c1ccc2c(Oc3ccc(C(F)(F)F)cc3)cccc2c1)c1cccnc1N [Compound 79, (R)—N-(1-(2-aminopyridin-3-yl)ethyl)-5-(4-(trifluoromethyl)phenoxy)-2-naphthamide] | 1 to 3 | –
C[C@H](CO)NC(=O)c1ccc2c(Oc3ccc(C(F)(F)F)cc3)cccc2c1 [Compound 24, (R)—N-(1-hydroxypropan-2-yl)-5-(4-(trifluoromethyl)phenoxy)-2-naphthamide] | < 0.1 | –
CC(NC(=O)c1ccc2c(Oc3ccc(C(F)(F)F)cc3)cccc2c1)c1cc(Br)ccn1 (stereo not shown) [Compound 75, N-(1-(4-bromopyridin-2-yl)ethyl)-5-(4-(trifluoromethyl)phenoxy)-2-naphthamide] | < 0.1 | –
C[C@H](CCNCCF)NC(=O)c1ccc2c(Oc3ccc(C(F)(F)F)cc3)cccc2c1 [Compound 148, (R)-N-(4-((2-fluoroethyl)amino)butan-2-yl)-5-(4-(trifluoromethyl)phenoxy)-2-naphthamide] | < 0.1 | –
C[C@H](NC(=O)c1ccc2c(Oc3ccc(C(F)(F)F)cc3)cccc2c1)c1nnn(C)n1 [Compound 58, (S)—N-(1-(2-methyl-2H-tetrazol-5-yl)ethyl)-5-(4-(trifluoromethyl)phenoxy)-2-naphthamide] | < 0.1 | –
CC(C)NC(=O)c1ccc2c(Oc3ccc(Cl)cc3)cccc2c1 [Compound 1, 5-(4-chlorophenoxy)-N-isopropyl-2-naphthamide] | – | < 0.1
C[C@@H](NC(=O)c1ccc2c(Oc3ccc(C(F)(F)F)cc3)cccc2c1)C1CN(CC(F)F)C1 [Compound 125, (R)—N-(1-(1-(2,2-difluoroethyl)azetidin-3-yl)ethyl)-5-(4-(trifluoromethyl)phenoxy)-2-naphthamide] | < 0.1 | –
C#CCCNC(=O)c1ccc2c(Oc3ccc(C(F)(F)F)cc3)cccc2c1 [Compound 21, N-(but-3-yn-1-yl)-5-(4-(trifluoromethyl)phenoxy)-2-naphthamide] | < 0.1 | –
C[C@H](NC(=O)c1ccc2c(Oc3ccc(C(F)(F)F)cc3)cccc2c1)c1cccc(N(C)C)n1 [Compound 76, (S)—N-(1-(6-(dimethylamino)pyridin-2-yl)ethyl)-5-(4-(trifluoromethyl)phenoxy)-2-naphthamide] | 0.1 to 1 | –
C[C@@H](NC(=O)c1ccc2c(Oc3ccc(C(F)(F)F)cc3)cccc2c1)C1CN(CCO)C1 [Compound 135, (R)—N-(1-(1-(2-hydroxyethyl)azetidin-3-yl)ethyl)-5-(4-(trifluoromethyl)phenoxy)-2-naphthamide] | – | 0.1 to 1
COC[C@@H](C)NC(=O)c1cnc2c(Oc3ccc(C(F)(F)F)cc3)cccc2c1 [Compound 16, N-[(1R)-2-methoxy-1-methyl-ethyl]-8-[4-(trifluoromethyl)phenoxy]quinoline-3-carboxamide] | 0.1 to 1 | –
